Each structure is given as a SMILES string.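 Grown in 96-well plates, cells were treated for 48 hours with each compound at five concentrations. Insufficient inhibition: endpoint recorded as highest concentration tested. GI50: concentration for 50% inhibition of growth. TGI: total growth inhibition.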

This note sets out measurements from PubChem BioAssay (NCI).

Experiment in all cases: growth of human tumour cells (NCI), 48 h
In experiment [1] the test system is EKVX NSCLC.
The subject of experiment [2] is HOP-62 NSCLC.
Experiment [3] deals with HT29 colon.
In experiment [4] the test system is KM12 colon.
For experiment [5], the system named is MALME-3M melanoma.
The test system of experiment [6] is MOLT-4 leukemia.
Experiment [7] relates to SF-539 CNS.
Experiment [8] relates to SK-OV-3 ovarian.
Experiment [9] has as its system SR leukemia.

In the case of `N#CC(C#N)=C1SCC(=O)CS1`, the TGI in [1], in [2], in [3], in experiment [4], in experiment [5] and in experiment [6] was above 100 µM each time. The TGI in experiment [7], in experiment [8] and in experiment [9] was above 100 µM each time.

Consider `CC1(C)C2C/C(=C\c3ccccc3)C(=O)C1C2` (stereo not drawn), for which the TGI in experiment [1], in experiment [2], in experiment [3], in experiment [4], in [5] and in experiment [6] was above 100 µM each time. Also, the TGI in [7] and in experiment [8] was above 100 µM throughout.

As for `Cn1c(=O)c(C(=O)NC(=O)OCc2ccccc2)cn(CCSCCOC(=O)NCCCCCCNC(=O)OCCSCCn2cc(C(=O)NC(=O)OCc3ccccc3)c(=O)n(C)c2=O)c1=O`, the TGI in experiment [1], in [2], in experiment [5], in [6] and in [7] was above 100 µM each time.

Consider `Cc1cccc2c1C/C(=C1\CCc3c(C)cccc31)C2=O`, for which the TGI in [1], in experiment [2], in experiment [3], in experiment [4], in experiment [5] and in [6] was above 100 µM throughout. Further, the TGI in experiment [8] and in experiment [9] was above 100 µM throughout.

For the molecule `Cc1cc(=O)oc2cc(OCc3nc4ccccc4c(=O)[nH]3)ccc12`, the TGI in experiment [1], in experiment [2], in experiment [3], in [4], in experiment [5] and in experiment [6] was above 100 µM in each case. Also, the TGI in [7] and in experiment [8] was above 100 µM each time.

As to `CCOc1ccccc1NC(=O)C1=C(C)NC(C)=C(C(=O)Nc2ccccc2OCC)C1c1ccc(NC(C)=O)cc1`, the TGI in experiment [1] was above 100 µM; in experiment [2], 49 µM; in [3], above 100 µM; in [4], above 100 µM; in experiment [5] it was above 100 µM; in experiment [6], above 100 µM. The TGI in experiment [7] is above 100 µM; in experiment [8], 67.5 µM.

As for `Cc1cccc2c1C(=O)OC2(C)c1cccc2ccccc12` (stereo not drawn), the TGI in [1] is above 100 µM; in [3], above 100 µM; in [4], above 100 µM; in experiment [5] it was above 100 µM; in experiment [6] it was 88.8 µM; in [9], 68.7 µM.

Consider `C/C(=C\CC[C@]1(C)OC(C)(C)OC1CC/C(C)=C/CO[Si](c1ccccc1)(c1ccccc1)C(C)(C)C)CC/C=C/CO[Si](C)(C)C(C)(C)C` (stereo partly drawn), for which the TGI in experiment [1], in [2], in [3], in experiment [4], in experiment [5] and in experiment [6] was above 100 µM throughout. The TGI in experiment [7] and in experiment [8] was above 100 µM each time.

`c1ccc(SC(CCCCOC2CCCCO2)Sc2ccccc2)cc1` (stereo not drawn): the TGI in experiment [1], in experiment [2], in [3], in experiment [4], in [5] and in [6] was above 100 µM throughout. Further, the TGI in experiment [7] and in experiment [8] was above 100 µM each time.

Regarding `Cc1ccc(/C=C2\CCCC\C2=N\O)cc1`, the TGI in experiment [1], in experiment [2], in experiment [3], in [7] and in experiment [8] was above 100 µM throughout.

On to `C[CH2][Sn]([CH2]C)([O]C(=O)c1cccc(F)c1)[O][Sn]([CH2]C)([CH2]C)[O]C(=O)c1cccc(F)c1`, for which the GI50 in experiment [1] was 15.3 µM; in experiment [2] it was 37.3 µM; in experiment [3], 35.4 µM; in experiment [4], above 100 µM; in experiment [5] it was 14.1 µM; in experiment [6], 31.9 µM. Besides, the GI50 was 17 µM in [7], above 100 µM in experiment [8] and 28 µM in [9]. For the same molecule, the TGI in experiment [1] was 29.1 µM; in experiment [2], above 100 µM; in [3], above 100 µM; in [4] it was above 100 µM; in experiment [5] it was 27.3 µM; in experiment [6], above 100 µM. Besides, the TGI in experiment [7] was 30.9 µM; in experiment [8] it was above 100 µM; in [9] it was above 100 µM.

With `CC1=Nn2c(nnc2-c2ccc(N)cc2)NC(C)(C)C1`, the TGI in experiment [1], in experiment [2], in experiment [3], in experiment [4], in experiment [5] and in [6] was above 100 µM throughout. The TGI in [7] and in experiment [8] was above 100 µM throughout.

For `O=C(/C=C1/NC(=O)CS1)Nc1ccccc1`, the TGI in experiment [1], in experiment [2], in experiment [3], in experiment [4], in experiment [5] and in experiment [6] was above 100 µM throughout. Besides, the TGI in experiment [7] and in experiment [8] was above 100 µM throughout.

`O=C1C[C@@H]2CCCC[C@@H]2C12SCCS2`: the TGI in experiment [1], in experiment [2], in [4], in experiment [5], in experiment [6] and in [7] was above 100 µM throughout. This molecule had a TGI in [8] above 100 µM.

As for `N#C[S-].[Au+].c1ccc(CN2[CH-]N(Cc3ccccc3)C(c3ccccc3)=C2c2ccccc2)cc1`, the GI50 in [4] was 0.527 µM; in experiment [5] it was 0.284 µM; in [7], 0.629 µM; in experiment [8], 0.391 µM. The TGI came to 2.79 µM in experiment [4], 1.15 µM in experiment [5], 2.13 µM in experiment [7] and 3.63 µM in experiment [8].

In the case of `NC(CCSC(F)F)C(=O)O` (stereo not drawn), the TGI in [1], in [2], in experiment [3], in experiment [4], in experiment [5] and in experiment [6] was above 100 µM throughout. The TGI in [7], in experiment [8] and in [9] was above 100 µM throughout.

Regarding `COc1cc(/C=C2/C(=O)NC(Cc3cc(OC)c(OC)c(C)c3OC)C(=O)N2Cc2ccccc2)c(OC)c(C)c1OC` (stereo not drawn), the TGI is above 100 µM in experiment [1]; above 100 µM in [2]; above 100 µM in [3]; above 100 µM in experiment [4]; above 100 µM in experiment [5]; 70.5 µM in experiment [6]. Further, the TGI in experiment [7] is above 100 µM; in [8], above 100 µM; in [9], 54.1 µM.

For the molecule `COc1ccc2c(c1)CC1c3c(cc4c(c3-2)OCO4)CCN1C` (stereo not drawn), the TGI in [1] was 81.5 µM; in [2], 96.7 µM; in [3], above 100 µM; in [4] it was above 100 µM; in experiment [5] it was 83.3 µM; in [6], 64.9 µM. In addition, the TGI in experiment [7] is above 100 µM; in experiment [8] it was 69.1 µM.

As for `C=CCN=C1NC(=O)C(CC(=O)Nc2ccc(C)cc2)S1` (stereo not drawn), the TGI in [1], in [2], in [3], in [4], in experiment [5] and in experiment [6] was above 100 µM in each case. For the same molecule, the TGI in experiment [7] and in experiment [8] was above 100 µM throughout.

In the case of `CC12CC3CC(C1)CC(N=[N+]=[N-])(C3)C2`, the TGI in experiment [1], in [2], in experiment [3], in experiment [4], in experiment [5] and in experiment [6] was above 100 µM throughout. In addition, the TGI in experiment [7] and in experiment [8] was above 100 µM throughout.

Consider `COc1cc(C(=O)CC2(O)C(=O)Nc3c(Cl)cc(Cl)cc32)ccc1O` (stereo not drawn), for which the TGI in experiment [1], in experiment [2], in [3], in experiment [4], in [5] and in experiment [6] was above 100 µM in each case. The molecule further came in with a TGI in experiment [8] above 100 µM.

For `Cc1ccc(C2=C(c3ccccc3)C(Br)(c3ccccc3)C(c3ccccc3)=C2c2ccc(C)cc2)cc1`, the TGI in experiment [1], in [2], in experiment [3], in experiment [4], in [5] and in experiment [6] was above 100 µM in each case. Besides, the TGI in [7] and in experiment [8] was above 100 µM in each case.

As to `C=C(C)[C@H](O)C(O)CC(C)[C@@H]1CCC23CC12CCC1[C@@]2(C)CCC(OC(C)=O)C(C)(C)C2CC(OC2OC(COC(C)=O)C(O)C(O)C2O)[C@]13C` (stereo partly drawn), the TGI in experiment [1] came out at 12.7 µM; in [2], 13.2 µM; in experiment [3] it was 8.77 µM; in [4], 11.3 µM; in [5], 14.7 µM; in experiment [6], 8.94 µM. In addition, the TGI came to 12.8 µM in experiment [7] and 14.3 µM in [8].

In the case of `O=C1CCCC1NC(=O)C(F)(F)F` (stereo not drawn), the TGI in experiment [1], in experiment [2], in experiment [3], in experiment [4], in experiment [5] and in [6] was above 100 µM in each case. Moreover, the TGI in experiment [7] and in experiment [8] was above 100 µM each time.

In the case of `COC(=O)C(CC(=O)Nc1ccc(Cl)c(Cl)c1)C(=O)C(=O)NC1C2CC3CC(C2)CC1C3` (stereo not drawn), the TGI in [1], in experiment [2], in experiment [3], in experiment [4], in experiment [5] and in experiment [6] was above 100 µM throughout. In addition, the TGI in [7], in [8] and in [9] was above 100 µM throughout.

`O=C1C[C@H]2CC3(CC[C@H]2CN1)OCCO3`: the TGI in experiment [1], in [2], in experiment [3], in experiment [4], in experiment [5] and in [6] was above 100 µM each time. In addition, the TGI in experiment [7] and in experiment [8] was above 100 µM in each case.

`Cc1ccc(N2C(=O)/C(=C/c3ccc(N(CCC#N)CCC#N)cc3C)N=C2c2cc([N+](=O)[O-])ccc2Cl)cc1`: the TGI in experiment [2], in experiment [3], in [4], in experiment [5], in experiment [6] and in experiment [7] was above 100 µM in each case. Besides, the TGI in [8] and in [9] was above 100 µM in each case.

Regarding `CCOC(=O)NC(=O)c1cn(CCN2CCN(C(=O)NCCCCCCNC(=O)N3CCN(CCn4cc(C(=O)NC(=O)OCC)c(=O)n(CCN(CC)CC)c4=O)CC3)CC2)c(=O)n(CCC(CC)CC)c1=O`, the TGI in experiment [1], in experiment [2], in experiment [3], in experiment [4], in experiment [5] and in [7] was above 100 µM each time. Further, the TGI in experiment [8] and in experiment [9] was above 100 µM throughout.

For `COc1cc([N+](=O)[O-])c(OC)cc1-c1nc2sc(Cl)cn2c1/C=N/NC(=N)N/N=C/c1c(-c2cc(OC)c([N+](=O)[O-])cc2OC)nc2sc(Cl)cn12`, the GI50 is 3.78 µM in [3], 1.54 µM in experiment [4], 1.61 µM in experiment [5] and 0.387 µM in experiment [7]. Moreover, the TGI is above 100 µM in experiment [3], 2.95 µM in [4], 3.28 µM in [5] and 1.8 µM in experiment [7].

Consider `COc1cc([C@@H]2OC(=O)C3C2C(=O)O[C@H]3c2cc(OC)c(OC)c(OC)c2)cc(OC)c1OC` (stereo partly drawn), for which the TGI in [1], in experiment [2], in experiment [3], in experiment [4], in experiment [6] and in [7] was above 100 µM throughout. In experiment [8], this molecule came in with a TGI above 100 µM.
